Among the data in US20240376099A1, “COMPOUNDS AND COMPOSITIONS AS INHIBITORS OF ENDOSOMAL TOLL-LIKE RECEPTORS” (Novartis AG, priority 2016, published 2024) are IC50 values, retold here.

Usually IC50 stands for the concentration at which inhibition is half-maximal.

This experiment has as its target T1, TLR7 (Homo sapiens, UniProt Q9NYK1).
T1 construct: Fresh blood was collected from normal human donors; endogenous in cells; host or cells: human PBMCs from fresh donor blood
T1 sequence (Q9NYK1 27-1049): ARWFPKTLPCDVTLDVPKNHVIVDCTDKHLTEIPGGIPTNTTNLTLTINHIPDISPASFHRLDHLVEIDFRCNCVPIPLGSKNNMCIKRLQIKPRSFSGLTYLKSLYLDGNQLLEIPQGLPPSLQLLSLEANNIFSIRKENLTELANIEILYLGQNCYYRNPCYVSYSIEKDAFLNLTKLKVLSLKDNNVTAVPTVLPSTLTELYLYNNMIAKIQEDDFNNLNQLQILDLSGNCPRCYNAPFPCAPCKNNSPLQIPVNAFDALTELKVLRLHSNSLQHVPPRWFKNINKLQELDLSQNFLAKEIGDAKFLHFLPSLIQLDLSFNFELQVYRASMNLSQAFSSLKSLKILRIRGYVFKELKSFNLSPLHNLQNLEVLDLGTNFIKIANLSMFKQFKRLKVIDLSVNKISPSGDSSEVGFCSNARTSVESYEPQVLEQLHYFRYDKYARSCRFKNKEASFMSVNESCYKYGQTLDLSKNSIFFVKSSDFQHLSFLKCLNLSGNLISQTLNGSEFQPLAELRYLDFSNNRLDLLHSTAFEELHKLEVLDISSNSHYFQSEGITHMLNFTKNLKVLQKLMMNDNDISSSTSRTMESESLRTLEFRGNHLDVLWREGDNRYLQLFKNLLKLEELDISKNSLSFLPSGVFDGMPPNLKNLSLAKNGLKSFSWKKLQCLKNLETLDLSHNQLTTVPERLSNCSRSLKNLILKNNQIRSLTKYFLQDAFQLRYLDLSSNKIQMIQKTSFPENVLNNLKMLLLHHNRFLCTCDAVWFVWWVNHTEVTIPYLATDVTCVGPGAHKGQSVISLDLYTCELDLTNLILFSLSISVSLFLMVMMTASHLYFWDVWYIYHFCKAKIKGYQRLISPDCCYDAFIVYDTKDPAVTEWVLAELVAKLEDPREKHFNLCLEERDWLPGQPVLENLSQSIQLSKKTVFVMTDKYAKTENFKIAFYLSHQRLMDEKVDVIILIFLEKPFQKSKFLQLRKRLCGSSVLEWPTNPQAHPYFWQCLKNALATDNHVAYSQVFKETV
Put plainly: huPBMC TLR7 Antagonist IFNα Assay. The conditions noted are these: human PBMCs stimulated with ssRNA40 10 μg/mL (DOTAP), 14-16 hrs; IFNα2b AlphaLISA read-out. It counts as cell-based. The essentials:
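Human PBMCs from fresh donor blood (150,000 cells/well) stimulated 14–16 h at 37 °C with DOTAP-complexed ssRNA40 (final 1 μg/ml for TLR8, 10 μg/mL for TLR7) or ODN2216 (final 0.3 μM, TLR9), 0.25% DMSO, ten-point 1/3 compound dilutions. Supernatant IL-6 read by HTRF (TLR8); IFNα by IFNα2b AlphaLISA (TLR7/TLR9).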
On the technique in general: Alpha assays give light when donor and acceptor beads are brought close together.
`Cc1cc(N2CCc3c(c(C)nn3CC34CCC(NC(=O)OC(C)(C)C)(CC3)CC4)C2)c2ccncc2n1` [Compound No. 147, tert-butyl (4-((3-methyl-5-(2-methyl-1,7-naphthyridin-4-yl)-4,5,6,7-tetrahydro-1H-pyrazolo[4,3-c]pyridin-1-yl)methyl)bicyclo[2.2.2]octan-1-yl)carbamate]: the IC50 stood at 33 nM. With `Cn1ncc2c(N3CCc4c(cnn4CC45CCC(N)(CC4)CC5)C3)nc(N)nc21` [compound 11, 4-(1-((4-aminobicyclo[2.2.2]octan-1-yl)methyl)-6,7-dihydro-1H-pyrazolo[4,3-c]pyridin-5(4H)-yl)-1-methyl-1H-pyrazolo[3,4-d]pyrimidin-6-amine], the 50% inhibitory concentration (IC50) was found to be 318 nM.

On to `Cn1ncc2c(N3CCc4nn(CC56CCC(N)(CC5)CC6)cc4C3)nc(N)nc21` [compound 12, 4-(2-((4-aminobicyclo[2.2.2]octan-1-yl)methyl)-6,7-dihydro-2H-pyrazolo[4,3-c]pyridin-5(4H)-yl)-1-methyl-1H-pyrazolo[3,4-d]pyrimidin-6-amine], for which the IC50 came to 841 nM. For `Cc1nn(CC23CCC(N)(CC2)CC3)c2c1CN(c1nc(N)nc3c1cnn3C)CC2` [compound 13, 4-(1-((4-aminobicyclo[2.2.2]octan-1-yl)methyl)-3-methyl-6,7-dihydro-1H-pyrazolo[4,3-c]pyridin-5(4H)-yl)-1-methyl-1H-pyrazolo[3,4-d]pyrimidin-6-amine] the value was 42 nM. Next, `Cc1c2c(nn1CC13CCC(N)(CC1)CC3)CCN(c1nc(N)nc3c1cnn3C)C2` [compound 14, 4-(2-((4-aminobicyclo[2.2.2]octan-1-yl)methyl)-3-methyl-6,7-dihydro-2H-pyrazolo[4,3-c]pyridin-5(4H)-yl)-1-methyl-1H-pyrazolo[3,4-d]pyrimidin-6-amine]: 241 nM; `Cc1nn(CC23CCC(N)(CC2)CC3)c2c1CN(c1nc(Cl)nc3cnn(C)c13)CC2` [compound 15, 4-((5-(5-chloro-1-methyl-1H-pyrazolo[4,3-d]pyrimidin-7-yl)-3-mehtyl-4,5,6,7-tetrahydro-1H-pyrazolo[4,3-c]pyridin-1-yl)methyl)bicyclo[2.2.2]octan-1-amine]: 288 nM; `Cc1nc(N2CCc3c(c(C)nn3CC34CCC(N5CCCC5)(CC3)CC4)C2)c2cnn(C)c2n1` [compound 16, 1,6-dimethyl-4-(3-methyl-1-((4-(pyrrolidin-1-yl)bicyclo[2.2.2]octan-1-yl)methyl)-6,7-dihydro-1H-pyrazolo[4,3-c]pyridin-5(4H)-yl)-1H-pyrazolo[3,4-d]pyrimidine]: 25 nM. Take `Cc1nc(N2CCc3c(c(C)nn3CC34CCC(N5CCCC5)(CC3)CC4)C2)c2c(n1)c(C)nn2C` [compound 17, 1,3,5-trimethyl-7-(3-methyl-1-((4-(pyrrolidin-1-yl)bicyclo[2.2.2]octan-1-yl)methyl)-6,7-dihydro-1H-pyrazolo[4,3-c]pyridin-5(4H)-yl)-1H-pyrazolo[4,3-d]pyrimidine]: the half-maximal inhibitory concentration (IC50) is 258 nM. Next, `COCCNC12CCC(Cn3nc(C)c4c3CCN(c3nc(C)nc5c(C)nn(C)c35)C4)(CC1)CC2` [compound 18, N-(2-methoxyethyl)-4-((3-methyl-5-(1,3,5-trimethyl-1H-pyrazolo[4,3-d]pyrimidin-7-yl)-4,5,6,7-tetrahydro-1H-pyrazolo[4,3-c]pyridin-1-yl)methyl)bicyclo[2.2.2]octan-1-amine]: 245 nM; `Cc1nc(N2CCc3c(c(C)nn3CC34CCC(N5CCOCC5)(CC3)CC4)C2)c2cnn(C)c2n1` [compound 19, 4-(4-((5-(1,6-dimethyl-1H-pyrazolo[3,4-d]pyrimidin-4-yl)-3-methyl-4,5,6,7-tetrahydro-1H-pyrazolo[4,3-c]pyridin-1-yl)methyl)bicyclo[2.2.2]octan-1-yl)morpholine]: 55 nM; `CCNCC(=O)NC12CCC(Cn3nc(C)c4c3CCN(c3nc(C)nc5[nH]ncc35)C4)(CC1)CC2` [compound 20, 2-(ethylamino)-N-(4-((3-methyl-5-(6-methyl-1H-pyrazolo[3,4-d]pyrimidin-4-yl)-4,5,6,7-tetrahydro-1H-pyrazolo[4,3-c]pyridin-1-yl)methyl)bicyclo[2.2.2]octan-1-yl)acetamide]: 25 nM. For `Cc1nc(N2CCc3c(c(C)nn3CC34CCC(N5CCOCC5)(CC3)CC4)C2)c2cn[nH]c2n1` [compound 21, 4-(4-((3-methyl-5-(6-methyl-1H-pyrazolo[3,4-d]pyrimidin-4-yl)-4,5,6,7-tetrahydro-1H-pyrazolo[4,3-c]pyridin-1-yl)methyl)bicyclo[2.2.2]octan-1-yl)morpholine] the value was 24 nM; for `CCNCC(=O)NC12CCC(Cn3nc(C)c4c3CCN(c3nc(C)nc5c(C)nn(C)c35)C4)(CC1)CC2` [compound 22, 2-(ethylamino)-N-(4-((3-methyl-5-(1,3,5-trimethyl-1H-pyrazolo[4,3-c]pyrimidin-7-yl)-4,5,6,7-tetrahydro-1H-pyrazolo[4,3-c]pyridin-1-yl)methyl)bicyclo[2.2.2]octan-1-yl)acetamide], 33 nM. Next, `Cc1nc(N2CCc3c(c(C)nn3CC34CCC(NCC5COC5)(CC3)CC4)C2)c2c(n1)c(C)nn2C` [compound 23, 4-((3-methyl-5-(1,3,5-trimethyl-1H-pyrazolo[4,3-c]pyrimidin-7-yl)-4,5,6,7-tetrahydro-1H-pyrazolo[4,3-c]pyridin-1-yl)methyl)-N-(oxetan-3-ylmethyl)bicyclo[2.2.2]octan-1-amine]: 666 nM. Consider `Cc1nc(N2CCc3c(c(C)nn3CC34CCC(NC(=O)CCN(C)C)(CC3)CC4)C2)c2c(n1)c(C)nn2C` [compound 24, 3-(dimethyalmino)-N-(4-((3-methyl-5-(1,3,5-trimethyl-1H-pyrazolo[4,3-d]pyrimidin-7-yl)-4,5,6,7-tetrahydro-1H-pyrazolo[4,3-c]pyridin-1-yl)methyl)bicyclo[2.2.2]octan-1-yl)propanamide], for which the IC50 turned out to be 201 nM.

In the case of `Cc1nc(N2CCc3c(c(C)nn3CC34CCC(N5CCOCC5)(CC3)CC4)C2)c2c(n1)c(C)nn2C` [compound 25, 4-(4-((3-methyl-5-(1,3,5-trimethyl-1H-pyrazolo[4,3-d]pyrimidin-7-yl)-4,5,6,7-tetrahydro-1H-pyrazolo[4,3-c]pyridin-1-yl)methyl)bicyclo[2.2.2]octan-1-yl)morpholine], the IC50 came out at 565 nM. For `Cc1nc(N2CCc3c(c(C)nn3CC34CCC(NC5CCC5)(CC3)CC4)C2)c2c(n1)c(C)nn2C` [compound 27, N-cyclobutyl-4-((3-methyl-5-(1,3,5-trimethyl-1H-pyrazolo[4,3-d]pyrimidin-7-yl)-4,5,6,7-tetrahydro-1H-pyrazolo[4,3-c]pyridin-1-yl)methyl)bicyclo[2.2.2]octan-1-amine] the value was 15 nM; for `Cc1nc(N2CCc3c(c(C)nn3CC34CCC(N(C5CCC5)C5CCC5)(CC3)CC4)C2)c2c(n1)c(C)nn2C` [compound 28, N,N-dicyclobutyl-4-((3-methyl-5-(1,3,5-trimethyl-1H-pyrazolo[4,3-d]pyrimidin-7-yl)-4,5,6,7-tetrahydro-1H-pyrazolo[4,3-c]pyridin-1-yl)methyl)bicyclo[2.2.2]octan-1-amine], 840 nM.
